Assays:
[1] = test system: Puccinia recondita f sp. tritici; test: Test F: wheat leaf rust, preventive spray on wheat seedlings; conditions: 100 = 100% disease control; for Test F rating (% disease control): wheat leaf rust, 0 = no control
Zymoseptoria tritici = test: Test E: wheat leaf blotch, preventive spray on wheat seedlings; conditions: 100 = 100% disease control; for Test E rating (% disease control): wheat leaf blotch, 0 = no control
Text: General protocol for preparing test solutions for Tests A-G: the test compounds were first dissolved in acetone in an amount equal to 3% of the final volume and then suspended at the desired concentration (in ppm) in acetone and purified water (50/50 mix by volume) containing 250 ppm of the surfactant PEG400 (polyhydric alcohol esters). The resulting test suspensions were then used in Tests A-G. Compounds were sprayed at a concentration of 50 ppm (*) or 10 ppm to the point of run-off on the test plants, the equivalent of a rate of 200 g/ha or 40 g/ha, respectively.
The test solution was sprayed to the point of run-off on wheat seedlings. The following day the seedlings were inoculated with a spore suspension of Zymoseptoria tritici (the causal agent of wheat leaf blotch) and incubated in a saturated atmosphere at 24° C. for 48 h, and then moved to a growth chamber at 20° C. for 17 days, after which time visual disease ratings were made.
Compounds with an asterisks (*) were applied at a concentration of 50 ppm, otherwise test solutions were applied at 10 ppm.

Stagonospora nodorum = test: Test D: wheat glume blotch, preventive spray on wheat seedlings; conditions: 100 = 100% disease control; for Test D rating (% disease control): wheat glume blotch, 0 = no control
Botrytis cinerea = test: Test B: gray mold, preventive spray on tomato seedlings; conditions: 100 = 100% disease control; for Test B rating (% disease control): gray mold on tomato, 0 = no control
[2] = test system: Erysiphe graminis f sp. tritici; test: Test G: wheat powdery mildew, preventive spray on wheat seedlings; conditions: 100 = 100% disease control; for Test G rating (% disease control): wheat powdery mildew, 0 = no control
[3] = 10 ppm test solution, 0 = no control relative to controls

Row | SMILES | Test F rating (% disease control) ([1]; 10 ppm) | Test E rating (% disease control) (Zymoseptoria tritici; 10 ppm) | Test D rating (% disease control) (Stagonospora nodorum; 10 ppm) | Test B rating (% disease control) (Botrytis cinerea; 10 ppm) | Test G rating (% disease control) ([2]; 10 ppm) | also measured
1 | OC(Cn1cncn1)(C1=NOC(c2ccc(-n3cc(Br)cn3)cc2)C1)c1ccc(Cl)cc1 (single isomer, unassigned) [Compound 5] | 100% | 48% | 40% | 0% | 100% | –
2 | CC(C)(C)CC(O)(Cn1cncn1)C1=NOC(c2ccc(Cl)cc2)C1 (single isomer, unassigned) [Compound 139] | 100% | 6% | 99% | 0% | 99% | –
3 | CC(C)(C)CC(O)(Cn1cncn1)C1=NOC(COc2ccc(Br)cc2)C1 (single isomer, unassigned) [Compound 171] | 100% | 0% | 63% | 0% | 94% | –
4 | OC(Cn1cncn1)(C1=NOC(c2ccc(Cl)cc2)C1)c1ccc(F)cc1 (single isomer, unassigned) [Compound 161] | 28% | 0% | 0% | 0% | 94% | –
5 | CC(C)(C)C(O)(Cn1cncn1)C1=NOC(CSc2ccc(Cl)cc2)C1 (single isomer, unassigned) [Compound 26] | 74% | 0% | 70% | 92% | 89% | –
6 | CC(C)(C)C(O)(Cn1cncn1)C1=NOC(COC2CCCCC2)C1 (single isomer, unassigned) [Compound 92] | 0% | 3% | 10% | 0% | 13% | –
7 | OC(Cn1cncn1)(C1=NOC(c2ccc(C(F)(F)F)cc2)C1)c1ccc(Cl)cc1 (single isomer, unassigned) [Compound 147] | 100% | 17% | 73% | 0% | 90% | –
8 | CC(C)(C)C(O)(Cn1cncn1)C1=NOC(COc2ccc(I)cc2)C1 (single isomer, unassigned) [Compound 185] | 100% | 0% | 100% | 0% | 99% | –
9 | CC(C)(C)C(O)(Cn1cncn1)C1=NOC(COc2ccc(C(F)(F)F)cc2)C1 (single isomer, unassigned) [Compound 88] | 100% | 76% | 99% | 0% | 99% | –
10 | OC(Cn1cncn1)(C1=NOC(Cn2cc(Br)cn2)C1)c1ccc(Cl)cc1 (single isomer, unassigned) [Compound 37] | 94% | 0% | 0% | 0% | 99% | –
11 | OC(Cc1ccccc1)(Cn1cncn1)C1=NOC(c2ccc(Cl)cc2)C1 (single isomer, unassigned) [Compound 121] | – | – | – | – | – | Test F rating (% disease control) ([1]; 50 ppm (asterisk)): 100%; Test E rating (% disease control) (Zymoseptoria tritici; 50 ppm (asterisk)): 62%; Test D rating (% disease control) (Stagonospora nodorum; 50 ppm (asterisk)): 100%; Test B rating (% disease control) (Botrytis cinerea; 50 ppm (asterisk)): 100%; Test G rating (% disease control) ([2]; 50 ppm (asterisk)): 100%
12 | OC(Cn1cncn1)(C1=NOC(c2ccc(Cl)cc2)C1)c1cccc(Oc2ccccc2)c1 (single isomer, unassigned) [Compound 110] | 21% | 72% | 0% | 0% | 48% | –
13 | OC(Cn1cncn1)(C1=NOC(c2ccc(Br)cc2)C1)c1ccc(Cl)cc1 (single isomer, unassigned) [Compound 178] | 100% | 91% | 99% | 0% | 100% | –
14 | OC(Cn1cncn1)(C1=NOC(COc2ccc3c(c2)OCO3)C1)c1ccc(Cl)cc1 (single isomer, unassigned) [Compound 44] | 0% | 2% | 28% | 0% | 64% | –
15 | OC(Cn1cncn1)(C1=NOC(c2ccc(F)cc2)C1)c1ccc(Cl)cc1 (single isomer, unassigned) [Compound 158] | 100% | 3% | 96% | 0% | 100% | –
16 | CC(C)(C)C(O)(Cn1cncn1)C1=NOC(c2ccc(-n3cc(Br)cn3)cc2)C1 (single isomer, unassigned) [Compound 7] | 100% | 14% | 0% | 99% | 100% | –
17 | CC(C)(C)C(O)(Cn1cncn1)C1=NOC(COc2ncc(Cl)cn2)C1 (single isomer, unassigned) [Compound 99] | 95% | 0% | 63% | 0% | 96% | –
18 | CC(C)(C)C(O)(Cn1cncn1)C1=NOC(COc2ccc(OC(F)(F)F)cc2)C1 (single isomer, unassigned) [Compound 25] | 99% | 0% | 59% | 0% | 100% | –
19 | CC(C)(C)CC1CC(C(O)(Cn2cncn2)c2ccc(Cl)cc2)=NO1 (single isomer, unassigned) [Compound 76] | 0% | 0% | 0% | 0% | 89% | –
20 | CC(C)(C)C(O)(Cn1cncn1)C1=NOC(CCc2ccc(Cl)cc2)C1 (single isomer, unassigned) [Compound 16] | 100% | 8% | 100% | 32% | 99% | –
21 | CC(C)(C)C(O)(Cn1cncn1)C1=NOC(COc2ccc(Cl)cn2)C1 (single isomer, unassigned) [Compound 95] | 100% | 0% | 100% | 100% | 100% | –
22 | CC(C)(C)CC(O)(Cn1cncn1)C1=NOC(Cc2ccc(C(F)(F)F)cc2)C1 (single isomer, unassigned) [Compound 226] | – | – | – | – | – | Test F disease control rating [1, 3]: 100%; Test E disease control rating (Zymoseptoria tritici; [3]): 0%; Test D disease control rating (Stagonospora nodorum; [3]): 51%; Test B disease control rating (Botrytis cinerea; [3]): 0%; Test G disease control rating [2, 3]: 99%
23 | OC(Cn1cncn1)(C1=NOC(c2ccc(Cl)cc2)C1)c1ccc(Oc2ccccc2)cc1 (mixture of isomers) [Compound 152] | 50% | 34% | 0% | 0% | 87% | –
24 | CC(C)(C)C(O)(Cn1cncn1)C1=NOC(CO[Si](C)(C)C(C)(C)C)C1 (single isomer, unassigned) [Compound 10] | 19% | 0% | 0% | 0% | 13% | –
25 | CC(C)(C)C(O)(Cn1cncn1)C1=NOC(CSc2ccccc2)C1 (single isomer, unassigned) [Compound 73] | 9% | 0% | 62% | 25% | 56% | –
26 | CC(C)(C)C(O)(Cn1cncn1)C1=NOC(CCc2ccc(C(F)(F)F)cc2)C1 (single isomer, unassigned) [Compound 14] | 100% | 4% | 88% | 0% | 99% | –
27 | OC(Cn1cncn1)(C1=NOC(c2ccc(C(F)(F)F)cc2)C1)c1ccc(C(F)(F)F)cc1 (single isomer, unassigned) [Compound 153] | 100% | 93% | 0% | 0% | 100% | –
